In assay [1] the target is T1, CD73 (Homo sapiens (Human), UniProt P21589). The class given is biochemical. The conditions noted are these: 1 mM NaH2PO4 in enzyme buffer, CD73 0.3 nM, AMP 15 uM.
Experimental: Compound serial dilutions were pre-spotted into Thermo Nunc assay plate. 50 uL CD73 enzyme buffer (CD73 purchased from R&D system=0.6 nM, 25 mM Tris, pH 7.4, 5 mM MgCl2, 1 mM NaH2PO4) was added into the assay plate and incubate for 15 mins. […] After incubation for 60 mins, the supernatant (20 uL) was transferred into 384-well NUNC plate pre-filled with 60 uL Quench buffer (80% organic and 20% water+0.1% FA) with internal standard. The plate was spun down at 4500 rpm for 20 mins, then 20 uL of supernatant was transferred to another Nunc plate prefilled with 80 uL of water. The samples were analyzed using Rapid fire.
Assay [2] concerns the target T1, CD73. The assay is described as follows: MDA-MB-231 Cell Based CD73 Activity Assay (DMEM). The settings on record: MDA-MB-231-GFP cells, DMEM medium with 10% human plasma, 200 uM AMP.

SMILES strings stand for the structures. A value given as a limit tells only on which side of the number the result lay.

T1 sequence (P21589 27-574): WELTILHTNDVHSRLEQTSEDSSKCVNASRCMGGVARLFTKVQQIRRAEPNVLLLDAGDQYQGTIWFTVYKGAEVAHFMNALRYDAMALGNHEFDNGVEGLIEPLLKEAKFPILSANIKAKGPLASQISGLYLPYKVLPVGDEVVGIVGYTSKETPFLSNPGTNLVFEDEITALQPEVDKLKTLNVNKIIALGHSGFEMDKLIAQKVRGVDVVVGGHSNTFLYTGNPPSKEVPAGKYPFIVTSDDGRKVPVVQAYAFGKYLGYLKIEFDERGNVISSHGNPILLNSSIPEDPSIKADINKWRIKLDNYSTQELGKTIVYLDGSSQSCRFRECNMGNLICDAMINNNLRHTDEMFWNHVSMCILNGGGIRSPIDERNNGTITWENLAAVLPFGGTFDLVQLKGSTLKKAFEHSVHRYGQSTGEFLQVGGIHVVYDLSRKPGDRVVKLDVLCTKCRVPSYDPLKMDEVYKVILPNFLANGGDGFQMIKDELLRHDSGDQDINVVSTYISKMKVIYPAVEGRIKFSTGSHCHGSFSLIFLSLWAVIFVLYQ

The term IC50 denotes the point on the concentration scale where inhibition reaches its midpoint. Lower therefore signals greater potency in that assay. A word on the EC50: it is the concentration giving half of the maximal effect. Low readings indicate an effect from little substance, high ones a need for much substance. As for `O=c1[nH]cc(-c2cc(OCC(F)(F)F)c3nccn3n2)c(=O)[nH]1` [Example 675, 5-(8-(2,2,2-trifluoroethoxy)imidazo[1,2-b]pyridazin-6-yl)pyrimidine-2,4(1H,3H)-dione], it took 49.5 nM to reach half-maximal inhibition on CD73 [1] (IC50). The same molecule had an EC50 at CD73 [2] of 78.7 nM.
At CD73 [1], `CC1(C)CN(c2cc(-c3c[nH]c(=O)[nH]c3=O)nn3ccnc23)CC(F)(F)C1` [Example 320, 5-(8-(3,3-difluoro-5,5-dimethylpiperidin-1-yl)imidazo[1,2-b]pyridazin-6-yl)pyrimidine-2,4(1H,3H)-dione] came in with an IC50 of over 250 nM. At CD73 [2], this molecule came in with an EC50 of 1150 nM.
In turn, `O=c1[nH]cc(-c2cc(N3CC(F)(C(F)(F)F)C3)n3nccc3n2)c(=O)[nH]1` [Example 244, 5-(7-(3-fluoro-3-(trifluoromethyl)azetidin-1-yl)pyrazolo[1,5-a]pyrimidin-5-yl)pyrimidine-2,4(1H,3H)-dione] showed an IC50 against CD73 [1] of 108 nM. The same molecule returned an EC50 on CD73 [2] of 574 nM.
`O=c1[nH]cc(-c2cc([C@H]3C[C@@H]3c3ccc4nc5n(c4c3)[C@@H](C(F)(F)F)CC5)c3nccn3n2)c(=O)[nH]1` [Example 640, 5-(8-((1S,2S)-2-((R)-1-(trifluoromethyl)-2,3-dihydro-1H-benzo[d]pyrrolo[1,2-a]imidazol-7-yl)cyclopropyl)imidazo[1,2-b]pyridazin-6-yl)pyrimidine-2,4(1H,3H)-dione] came in with an IC50 against CD73 [1] of 1.6 nM. In addition, the EC50 at CD73 [2] was determined as 0.12 nM.
In the same order, the values of `CC1(C)CN(c2cc(-c3c[nH]c(=O)[nH]c3=O)nn3ccnc23)CC1(F)F` [Example 80, 5-[8-(3,3-difluoro-4,4-dimethyl-pyrrolidin-1-yl)imidazo[1,2-b]pyridazin-6-yl]-1H-pyrimidine-2,4-dione] are 1.81 nM and 6.79 nM.
The corresponding values for `COCCn1cc(-c2cc(-c3c[nH]c(=O)[nH]c3=O)nn3ccnc23)cn1` [Example 510, 5-(8-(1-(2-methoxyethyl)-1H-pyrazol-4-yl)imidazo[1,2-b]pyridazin-6-yl)pyrimidine-2,4(1H,3H)-dione] are 246 nM and 382 nM.
Take `O=c1[nH]cc(-c2cc(N3CC4CCC4(F)C3)c3nccn3n2)c(=O)[nH]1` (stereo not drawn) [Example 478, 5-(8-(1-fluoro-3-azabicyclo[3.2.0]heptan-3-yl)imidazo[1,2-b]pyridazin-6-yl)pyrimidine-2,4(1H,3H)-dione]: the IC50 against CD73 [1] turned out to be 32.1 nM. At CD73 [2], the concentration giving a half-maximal response (EC50) amounted to 53.7 nM.
In the same order, the values of `O=c1[nH]cc(-c2cc(OCC(F)(F)COc3ccccn3)c3nccn3n2)c(=O)[nH]1` [Example 695, 5-(8-(2,2-difluoro-3-(pyridin-2-yloxy)propoxy)imidazo[1,2-b]pyridazin-6-yl)pyrimidine-2,4(1H,3H)-dione] are 1.82 nM and 17.4 nM.
The corresponding values for `O=c1[nH]cc(-c2cc(N3CC(c4ccc(F)cc4)C3)c3nccn3n2)c(=O)[nH]1` [Example 258, 5-(8-(3-(4-fluorophenyl)azetidin-1-yl)imidazo[1,2-b]pyridazin-6-yl)pyrimidine-2,4(1H,3H)-dione] are 52.4 nM and 106 nM.
`N#Cc1ccc([C@H]2C[C@@H]2c2cc(-c3c[nH]c(=O)[nH]c3=O)nn3ccnc23)cc1C1CC1` [Example 563, 2-cyclopropyl-4-((1S,2S)-2-(6-(2,4-dioxo-1,2,3,4-tetrahydropyrimidin-5-yl)imidazo[1,2-b]pyridazin-8-yl)cyclopropyl)benzonitrile]: half-maximal inhibition on CD73 [1] (IC50) required 0.66 nM. Moreover, at CD73 [2], the EC50 amounted to 10.6 nM.
The corresponding values for `O=c1[nH]cc(-c2cc([C@H]3C[C@@H]3c3ccc4cnn(CC(F)(F)F)c4c3)c3ncnn3n2)c(=O)[nH]1` [Example 431, 5-(8-((1S,2S)-2-(1-(2,2,2-trifluoroethyl)-1H-indazol-6-yl)cyclopropyl)-[1,2,4]triazolo[1,5-b]pyridazin-6-yl)pyrimidine-2,4(1H,3H)-dione] are 0.15 nM and 0.13 nM.
Molecule `O=c1[nH]cc(-c2cc([C@H]3C[C@@H]3c3cc4c(cn3)c(C(F)(F)F)nn4CC(F)(F)F)c3nccn3n2)c(=O)[nH]1` [Example 637, 5-(8-((1S,2S)-2-(1-(2,2,2-trifluoroethyl)-3-(trifluoromethyl)-1H-pyrazolo[4,3-c]pyridin-6-yl)cyclopropyl)imidazo[1,2-b]pyridazin-6-yl)pyrimidine-2,4(1H,3H)-dione] showed an IC50 on CD73 [1] of 2.06 nM. At CD73 [2], this molecule showed a concentration giving a half-maximal response (EC50) of 0.39 nM.
In the same order, the values of `CC1(C)C(=O)N(CC(F)(F)F)c2cc([C@H]3C[C@@H]3c3cc(-c4c[nH]c(=O)[nH]c4=O)nn4c(F)cnc34)ccc21` [Example 702, 5-(8-((1S,2S)-2-(3,3-dimethyl-2-oxo-1-(2,2,2-trifluoroethyl)indolin-6-yl)cyclopropyl)-3-fluoroimidazo[1,2-b]pyridazin-6-yl)pyrimidine-2,4(1H,3H)-dione] are 1.7 nM and 0.26 nM.
The corresponding values for `O=c1[nH]cc(-c2cc([C@H]3C[C@@H]3c3ccc4cnc(C(F)(F)F)cc4c3)c3nccn3n2)c(=O)[nH]1` [Example 133, 5-(8-((1S,2S)-2-(3-(trifluoromethyl)isoquinolin-6-yl)cyclopropyl)imidazo[1,2-b]pyridazin-6-yl)pyrimidine-2,4(1H,3H)-dione] are 0.92 nM and 1.6 nM.
`O=c1[nH]cc(-c2cc(N3CC(C(F)F)C4(CC4)C3)c3nccn3n2)c(=O)[nH]1` (stereo not drawn) [Example 170, 5-(8-(7-(difluoromethyl)-5-azaspiro[2.4]heptan-5-yl)imidazo[1,2-b]pyridazin-6-yl)pyrimidine-2,4(1H,3H)-dione]: on CD73 [1], half-maximal inhibition (IC50) was put at 35.4 nM. This molecule also returned an EC50 at CD73 [2] of 136 nM.
In the same order, the values of `O=c1[nH]cc(-c2cc(NC3CCC(F)(F)C3)c3nccn3n2)c(=O)[nH]1` (stereo not drawn) [Example 227, 5-(8-((3,3-difluorocyclopentyl)amino)imidazo[1,2-b]pyridazin-6-yl)pyrimidine-2,4(1H,3H)-dione] are over 250 nM and 487 nM.
The corresponding values for `O=c1[nH]cc(-c2cc(N3CC(C45CC(C4)C5)C3)c3nccn3n2)c(=O)[nH]1` [Example 446, 5-(8-(3-(bicyclo[1.1.1]pentan-1-yl)azetidin-1-yl)imidazo[1,2-b]pyridazin-6-yl)pyrimidine-2,4(1H,3H)-dione] are 91 nM and 1100 nM.
Take `O=c1[nH]cc(-c2cc([C@H]3C[C@@H]3c3cc4c(ccn4CC(F)(F)F)cn3)c3nccn3n2)c(=O)[nH]1` [Example 705, 5-(8-((1S,2S)-2-(1-(2,2,2-trifluoroethyl)-1H-pyrrolo[3,2-c]pyridin-6-yl)cyclopropyl)imidazo[1,2-b]pyridazin-6-yl)pyrimidine-2,4(1H,3H)-dione]: the IC50 against CD73 [1] worked out at 0.4 nM. The molecule also returned a 50% effective concentration (EC50) on CD73 [2] of 0.07 nM.
In the same order, the values of `O=c1[nH]cc(-c2cc([C@H]3C[C@@H]3c3ncc(Cl)cc3F)c3ncc(F)n3n2)c(=O)[nH]1` (racemic) [Example 583, 5-(8-((1S,2S)-2-(5-chloro-3-fluoropyridin-2-yl)cyclopropyl)-3-fluoroimidazo[1,2-b]pyridazin-6-yl)pyrimidine-2,4(1H,3H)-dione] are 2.63 nM and 9.53 nM.
`O=c1[nH]cc(-c2cc([C@H]3C[C@@H]3c3ccc4cnn(CC(F)(F)F)c4n3)c3ncc(F)n3n2)c(=O)[nH]1` (racemic) [Example 602, 5-(3-fluoro-8-((1S,2S)-2-(1-(2,2,2-trifluoroethyl)-1H-pyrazolo[3,4-b]pyridin-6-yl)cyclopropyl)imidazo[1,2-b]pyridazin-6-yl)pyrimidine-2,4(1H,3H)-dione]: on CD73 [1], the IC50 was 0.93 nM. In addition, it took 0.53 nM to reach a half-maximal effect on CD73 [2] (EC50).
The corresponding values for `O=C(Nc1ccccc1F)OCC(F)(F)COc1cc(-c2c[nH]c(=O)[nH]c2=O)nn2ccnc12` [Example 234, 3-((6-(2,4-dioxo-1,2,3,4-tetrahydropyrimidin-5-yl)imidazo[1,2-b]pyridazin-8-yl)oxy)-2,2-difluoropropyl (2-fluorophenyl)carbamate] are 0.62 nM and 6.56 nM.
As for `Cc1cc([C@H]2C[C@@H]2c2cc(-c3c[nH]c(=O)[nH]c3=O)nn3ccnc23)cc(F)c1C#N` [Example 567, 4-((1S,2S)-2-(6-(2,4-dioxo-1,2,3,4-tetrahydropyrimidin-5-yl)imidazo[1,2-b]pyridazin-8-yl)cyclopropyl)-2-fluoro-6-methylbenzonitrile], it took 1.73 nM to reach half-maximal inhibition against CD73 [1] (IC50). Besides, the response on CD73 [2] was half-maximal at 7.93 nM (EC50).
For `O=c1[nH]cc(-c2cc([C@H]3C[C@@H]3c3ncc(Br)cn3)c3nccn3n2)c(=O)[nH]1` [Example 380, 5-(8-((1S,2S)-2-(5-bromopyrimidin-2-yl)cyclopropyl)imidazo[1,2-b]pyridazin-6-yl)pyrimidine-2,4(1H,3H)-dione], the IC50 against CD73 [1] is 3.43 nM. Further, the EC50 on CD73 [2] stood at 14.3 nM.
Turning to `O=c1[nH]cc(-c2cc(NC[C@@H](F)c3ccccc3)c3nccn3n2)c(=O)[nH]1` [Example 494, (S)-5-(8-((2-fluoro-2-phenylethyl)amino)imidazo[1,2-b]pyridazin-6-yl)pyrimidine-2,4(1H,3H)-dione], 102 nM corresponded to half-maximal inhibition against CD73 [1] (IC50). On CD73 [2], this molecule registered an EC50 of 291 nM.
In the same order, the values of `CC1CN(c2cc(-c3c[nH]c(=O)[nH]c3=O)nc3c(F)cnn23)CC1(F)F` (stereo not drawn) [Example 222, 5-(7-(3,3-difluoro-4-methylpyrrolidin-1-yl)-3-fluoropyrazolo[1,5-a]pyrimidin-5-yl)pyrimidine-2,4(1H,3H)-dione] are 17.4 nM and 133 nM.
The corresponding values for `C[C@H](CNc1cc(-c2c[nH]c(=O)[nH]c2=O)nn2ccnc12)c1ccccc1` [Example 499, (S)-5-(8-((2-phenylpropyl)amino)imidazo[1,2-b]pyridazin-6-yl)pyrimidine-2,4(1H,3H)-dione] are 163 nM and 501 nM.
The corresponding values for `CC(C)(C)NC(=O)O[C@H]1CN(c2cc(-c3c[nH]c(=O)[nH]c3=O)nn3ccnc23)CC1(F)F` [Example 544, (S)-1-(6-(2,4-dioxo-1,2,3,4-tetrahydropyrimidin-5-yl)imidazo[1,2-b]pyridazin-8-yl)-4,4-difluoropyrrolidin-3-yl tert-butylcarbamate] are 1.01 nM and 0.13 nM.

Source of the values: US20240043427A1 (Gilead Sciences, Inc., priority 2020, published 2024).
